Test results as given in ChEMBL document CHEMBL1129895, “A novel series of matrix metalloproteinase inhibitors for the treatment of inflammatory disorders” (Bioorg Med Chem Lett, 1997).
Square brackets hold non-standard residues; d marks the D form. Peptide text beside a SMILES is read from it. * marks the point of attachment. Propionyl = CCC(=O)*; Mpa = O=C(O)CCS

Columns and labels:
[1] = biological target: T1, Matrix metalloproteinase-9 (Rattus norvegicus, UniProt P50282); assay: Compound was tested for its inhibitory activity against Matrix metalloprotease-9 in adjuvant arthritic rat model of rheumatoid arthritis
[2] = biological target: Neutrophil collagenase (Rattus norvegicus, UniProt O88766); assay: Compound was tested for its inhibitory activity against Matrix metalloprotease-8 (MMP-8) in adjuvant arthritic rat model of rheumatoid arthritis
[3] = biological target: T1, Matrix metalloproteinase-9; assay: Compound was tested for its inhibitory activity against Matrix metalloprotease-9 (MMP-9) in adjuvant arthritic rat model of rheumatoid arthritis
[4] = tested on: Rattus norvegicus; assay: Inhibition of hind paw swelling was observed by the administration of compound at 40 mg/kg/day, perorally in adjuvant arthritic rat model of rheumatoid arthritis; type: functional; details: route oral

T1 sequence (P50282 whole entry): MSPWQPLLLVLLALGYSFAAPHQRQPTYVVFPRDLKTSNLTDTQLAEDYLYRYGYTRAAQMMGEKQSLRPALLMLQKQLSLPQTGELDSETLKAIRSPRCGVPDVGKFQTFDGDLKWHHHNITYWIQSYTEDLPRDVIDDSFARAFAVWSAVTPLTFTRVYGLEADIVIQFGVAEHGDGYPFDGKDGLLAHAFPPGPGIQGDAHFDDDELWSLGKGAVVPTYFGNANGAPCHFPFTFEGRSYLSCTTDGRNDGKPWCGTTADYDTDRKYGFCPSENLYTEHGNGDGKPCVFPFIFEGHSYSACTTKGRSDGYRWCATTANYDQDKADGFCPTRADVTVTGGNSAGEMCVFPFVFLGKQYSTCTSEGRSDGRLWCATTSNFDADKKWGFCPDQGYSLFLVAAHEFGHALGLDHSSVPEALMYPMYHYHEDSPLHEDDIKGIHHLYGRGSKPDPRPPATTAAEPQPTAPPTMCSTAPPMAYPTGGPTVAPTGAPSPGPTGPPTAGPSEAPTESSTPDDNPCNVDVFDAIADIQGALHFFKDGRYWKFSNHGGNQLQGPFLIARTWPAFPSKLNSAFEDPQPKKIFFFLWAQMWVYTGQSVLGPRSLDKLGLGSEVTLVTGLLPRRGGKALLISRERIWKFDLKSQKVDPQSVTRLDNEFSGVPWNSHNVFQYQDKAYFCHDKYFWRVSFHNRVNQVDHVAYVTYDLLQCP
Neutrophil collagenase, sequence (O88766 whole entry): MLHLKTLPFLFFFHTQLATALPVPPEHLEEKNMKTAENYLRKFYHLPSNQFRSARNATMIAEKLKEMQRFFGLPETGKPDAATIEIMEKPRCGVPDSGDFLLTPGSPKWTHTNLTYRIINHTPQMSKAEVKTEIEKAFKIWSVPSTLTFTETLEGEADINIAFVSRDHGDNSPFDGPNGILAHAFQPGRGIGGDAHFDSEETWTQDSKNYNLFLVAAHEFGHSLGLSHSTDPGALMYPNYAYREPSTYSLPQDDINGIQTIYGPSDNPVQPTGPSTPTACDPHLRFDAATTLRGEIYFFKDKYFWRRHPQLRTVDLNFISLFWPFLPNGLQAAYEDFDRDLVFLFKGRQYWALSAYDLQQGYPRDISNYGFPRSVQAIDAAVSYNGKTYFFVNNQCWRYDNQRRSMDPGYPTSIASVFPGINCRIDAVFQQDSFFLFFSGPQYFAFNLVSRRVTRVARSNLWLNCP

| SMILES | IC50 [1] [nM] | IC50 [2] [nM] | IC50 [3] [nM] | inhibition in vivo at 40 mg/kg/day [4] [%] |
| --- | --- | --- | --- | --- |
| CNC(=O)[C@H](Cc1c[nH]c2ccccc12)NC(=O)[C@H](CSC)NC(=O)CS | – | 20 | 120 | – |
| CNC(=O)[C@H](Cc1c[nH]c2ccccc12)NC(=O)[C@H](CC(C)C)NC(=O)CS | – | 80 | 30 | – |
| CNC(=O)[C@H](Cc1ccccc1)NC(=O)[C@H](CC(C)C)NC(=O)CCS ([Mpa]-Leu-Phe-NHMe) | 9600 | 5100 | – | – |
| CNC(=O)[C@H](Cc1ccccc1)NC(=O)[C@H](CC(C)C)NC(=O)CS | 90 | 50 | – | 40 |
| CNC(=O)[C@H](Cc1ccccc1)NC(=O)[C@H](CC(C)C)NC(=O)CSC | 4600 | 2600 | – | – |

Second part, led by results:

| IC50 [1] [nM] | IC50 [2] [nM] | IC50 [3] [nM] | SMILES | inhibition in vivo at 40 mg/kg/day [4] [%] |
| --- | --- | --- | --- | --- |
| 350 | 480 | – | CNC(=O)[C@H](Cc1ccccc1)NC(=O)[C@H](C[S+](C)[O-])NC(=O)CS (stereo partly specified) | – |
| 30000 | > 100000 | – | CCC(=O)N[C@@H](CC(C)C)C(=O)N[C@@H](Cc1ccccc1)C(=O)NC (Propionyl-Leu-Phe-NHMe) | – |
| – | 12 | 7 | CNC(=O)[C@H](Cc1cscn1)NC(=O)[C@H](CC(C)C)NC(=O)CS | – |
| 1700 | 4100 | – | CNC(=O)[C@H](Cc1ccccc1)NC(=O)[C@@H](NC(=O)CS)C(C)O (stereo partly specified) | – |
| 13 | 6 | – | CNC(=O)[C@H](Cc1ccccc1)NC(=O)[C@H](CSC)NC(=O)CS | – |
